# Source: ChEMBL document CHEMBL1201862, “PubChem BioAssay data set” (2004)
#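 48-hour exposure; five concentrations; linearly interpolated endpoints. GI50 marks 50% less growth.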 Active and inactive are the calls of the source. Cut-off read from the data, not from the text of the source: active = GI50 up to about 1.1 µM and inactive = higher.
# Tests used:
# Assay in all cases: growth of human tumour cells (NCI), 48 h
# HOP-62 = system: HOP-62
# IGROV-1 = system: IGROV-1
# M14 = system: M14
# SW-620 = system: SW-620
# SF-539 = system: SF-539
# HT-29 = system: HT-29
# SF-295 = system: SF-295
# MDA-MB-435 = system: MDA-MB-435
# ACHN = system: ACHN
# OVCAR-3 = system: OVCAR-3
# K562 = system: K562
# MOLT-4 = system: MOLT-4
# SN12C = system: SN12C
# HCT-116 = system: HCT-116
# UACC-62 = system: UACC-62
# T47D = system: T47D
# NCI/ADR-RES = system: NCI/ADR-RES
# SK-MEL-2 = system: SK-MEL-2
# A498 = system: A498
# MDA-N = system: MDA-N
SMILES,GI50 (HOP-62),GI50 (IGROV-1),GI50 (M14),GI50 (SW-620),GI50 (SF-539),GI50 (HT-29),GI50 (SF-295),GI50 (MDA-MB-435),GI50 (ACHN),GI50 (OVCAR-3),GI50 (K562),GI50 (MOLT-4),GI50 (SN12C),GI50 (HCT-116),GI50 (UACC-62),GI50 (T47D),GI50 (NCI/ADR-RES),GI50 (SK-MEL-2),GI50 (A498),GI50 (MDA-N)
Clc1ccc(Cn2cc(/C=N/n3cnnc3)c3ccccc32)cc1,74.3 µM (inactive),24.1 µM (inactive),57 µM (inactive),> 100 µM (inactive),40.5 µM (inactive),> 100 µM (inactive),33.3 µM (inactive),83.9 µM (inactive),51.1 µM (inactive),86.5 µM (inactive),22.5 µM (inactive),63.8 µM (inactive),45.9 µM (inactive),31.8 µM (inactive),29 µM (inactive),11.8 µM (inactive),35 µM (inactive),26.7 µM (inactive),1.49 µM (inactive),
c1ccc2c(c1)CCN2CCc1c[nH]c2ccccc12,> 10 µM (inactive),> 10 µM (inactive),> 10 µM (inactive),> 10 µM (inactive),> 10 µM (inactive),> 10 µM (inactive),> 10 µM (inactive),> 10 µM (inactive),> 10 µM (inactive),> 10 µM (inactive),> 10 µM (inactive),> 10 µM (inactive),> 10 µM (inactive),> 10 µM (inactive),> 10 µM (inactive),> 10 µM (inactive),> 10 µM (inactive),> 10 µM (inactive),,> 10 µM (inactive)
CC(=O)O[C@H]1C(=O)[C@@]2(C)[C@H]([C@H](OC(=O)c3ccccc3)[C@]3(O)C[C@H](OC(=O)[C@H](O)[C@@H](NC(=O)CC(C)(C)C)c4ccccc4)C(C)=C1C3(C)C)C1(OC(C)=O)CO[C@@H]1C[C@@H]2O (some centres not stated),0.00671 µM (active),0.00154 µM (active),,0.00171 µM (active),0.00127 µM (active),< 0.001 µM (active),0.0208 µM (active),< 0.001 µM (active),0.0764 µM (active),,0.00113 µM (active),0.00296 µM (active),0.00287 µM (active),< 0.001 µM (active),0.00158 µM (active),0.00908 µM (active),4.26 µM (inactive),0.002 µM (active),0.303 µM (active),0.1 µM (active)
CC(=O)OC[C@@H](OC(C)=O)[C@@H](OC(C)=O)[C@H]1OC[C@@H]2C[C@H]([C@H]1OC(C)=O)N(Cc1ccccc1)O2,> 100 µM (inactive),> 100 µM (inactive),> 100 µM (inactive),> 100 µM (inactive),> 100 µM (inactive),> 100 µM (inactive),> 100 µM (inactive),> 100 µM (inactive),> 100 µM (inactive),> 100 µM (inactive),> 100 µM (inactive),> 100 µM (inactive),> 100 µM (inactive),> 100 µM (inactive),> 100 µM (inactive),> 100 µM (inactive),> 100 µM (inactive),> 100 µM (inactive),,> 100 µM (inactive)
O=C1/C(=C/C=C/c2ccccc2)N=C(c2ccccc2)N1C1Nc2cc3c(cc2S1)NC(N1C(=O)/C(=C/C=C/c2ccccc2)N=C1c1ccccc1)S3 (configuration not stated),> 100 µM (inactive),48 µM (inactive),26.4 µM (inactive),22.4 µM (inactive),> 100 µM (inactive),23.3 µM (inactive),67.6 µM (inactive),31.9 µM (inactive),41.8 µM (inactive),46.9 µM (inactive),0.311 µM (active),0.0117 µM (active),,28.1 µM (inactive),,30.3 µM (inactive),67.9 µM (inactive),> 100 µM (inactive),15.5 µM (inactive),
C/C(=N\NC(=S)NNC(=S)N(C)c1ccccc1)c1ccccn1,0.885 µM (active),0.764 µM (active),0.454 µM (active),0.489 µM (active),2.07 µM (inactive),0.455 µM (active),2.94 µM (inactive),3.52 µM (inactive),0.628 µM (active),0.544 µM (active),2.31 µM (inactive),0.43 µM (active),1.6 µM (inactive),0.673 µM (active),,2.96 µM (inactive),2.66 µM (inactive),5.68 µM (inactive),,4.06 µM (inactive)
COCN1C(=O)[C@@H]2CCCN2C(=O)c2cc(Cl)ccc21,> 100 µM (inactive),> 100 µM (inactive),> 100 µM (inactive),> 100 µM (inactive),,> 100 µM (inactive),> 100 µM (inactive),> 100 µM (inactive),> 100 µM (inactive),,> 100 µM (inactive),> 100 µM (inactive),> 100 µM (inactive),> 100 µM (inactive),> 100 µM (inactive),> 100 µM (inactive),> 100 µM (inactive),> 100 µM (inactive),> 100 µM (inactive),> 100 µM (inactive)
COC(=O)c1c2c(cc3c1CC1(Cc4cc5c(cc4C1=O)CCC5)C3)CCC2 (configuration not stated),34.3 µM (inactive),34.3 µM (inactive),90.4 µM (inactive),20.8 µM (inactive),97.7 µM (inactive),37.4 µM (inactive),21.5 µM (inactive),28.1 µM (inactive),86.1 µM (inactive),72.9 µM (inactive),7.94 µM (inactive),5.47 µM (inactive),> 100 µM (inactive),13.3 µM (inactive),39.1 µM (inactive),59 µM (inactive),,> 100 µM (inactive),34.4 µM (inactive),20.4 µM (inactive)
Oc1c(Cl)c(Cl)c(O)c(-c2cnc(-c3ncc(-c4c(O)c(Cl)c(Cl)c(O)c4Cl)s3)s2)c1Cl,54.2 µM (inactive),16.1 µM (inactive),19.5 µM (inactive),21.4 µM (inactive),24.3 µM (inactive),35.6 µM (inactive),19.9 µM (inactive),21.9 µM (inactive),23.3 µM (inactive),21.4 µM (inactive),34.1 µM (inactive),> 100 µM (inactive),27.4 µM (inactive),21.1 µM (inactive),19.7 µM (inactive),29.9 µM (inactive),25.3 µM (inactive),18.4 µM (inactive),,
COCc1cc2c(s1)C(=O)C1=C(C2=O)C2(C=C(Br)C(=O)C(Br)=C2)CCN1,,7.24 µM (inactive),1.68 µM (inactive),3.21 µM (inactive),4.65 µM (inactive),3.09 µM (inactive),6.05 µM (inactive),1.58 µM (inactive),4.98 µM (inactive),0.809 µM (active),2.11 µM (inactive),2.43 µM (inactive),8.15 µM (inactive),1.41 µM (inactive),1.56 µM (inactive),3.06 µM (inactive),3.52 µM (inactive),3.55 µM (inactive),15.7 µM (inactive),1.73 µM (inactive)
CC(C)(C)OC(=O)NC(Cc1ccccc1)OCc1ccccc1 (configuration not stated),18.9 µM (inactive),> 10 µM (inactive),17.9 µM (inactive),17.2 µM (inactive),21.4 µM (inactive),21.1 µM (inactive),16.6 µM (inactive),19.4 µM (inactive),19.4 µM (inactive),23.2 µM (inactive),20.6 µM (inactive),17.4 µM (inactive),26.1 µM (inactive),17.9 µM (inactive),15 µM (inactive),14.6 µM (inactive),26.7 µM (inactive),29.4 µM (inactive),,19.3 µM (inactive)
CN1N(c2ccccc2)C(=O)C2=NC=C(C(=O)c3ccccc3)C(=N)C21C (configuration not stated),> 100 µM (inactive),> 100 µM (inactive),> 100 µM (inactive),> 100 µM (inactive),> 100 µM (inactive),> 100 µM (inactive),> 100 µM (inactive),> 100 µM (inactive),> 100 µM (inactive),> 100 µM (inactive),> 100 µM (inactive),> 100 µM (inactive),> 100 µM (inactive),> 100 µM (inactive),> 100 µM (inactive),> 100 µM (inactive),,> 100 µM (inactive),> 100 µM (inactive),> 100 µM (inactive)
COc1cc(O)ccc1C(=S)SC,> 100 µM (inactive),42.6 µM (inactive),> 100 µM (inactive),> 100 µM (inactive),76.2 µM (inactive),> 100 µM (inactive),60.3 µM (inactive),68.5 µM (inactive),68.2 µM (inactive),62.4 µM (inactive),52.8 µM (inactive),20.8 µM (inactive),1.45 µM (inactive),80.9 µM (inactive),28.3 µM (inactive),70.3 µM (inactive),38.9 µM (inactive),> 100 µM (inactive),,
Clc1nc(Cl)c(Cl)c(Cl)n1,19.6 µM (inactive),19.9 µM (inactive),17 µM (inactive),6.85 µM (inactive),23 µM (inactive),20.7 µM (inactive),19.3 µM (inactive),21.8 µM (inactive),8.91 µM (inactive),13.9 µM (inactive),8.99 µM (inactive),6.21 µM (inactive),20.6 µM (inactive),18.9 µM (inactive),18.5 µM (inactive),18.2 µM (inactive),23.4 µM (inactive),,19.4 µM (inactive),19.1 µM (inactive)
C[C@]12CCC3c4ccc(O)cc4CC[C@H]3C1CC(=O)N(N)C2=O (some centres not stated),> 100 µM (inactive),> 100 µM (inactive),> 100 µM (inactive),> 100 µM (inactive),> 100 µM (inactive),> 100 µM (inactive),> 100 µM (inactive),> 100 µM (inactive),> 100 µM (inactive),> 100 µM (inactive),> 100 µM (inactive),> 100 µM (inactive),> 100 µM (inactive),> 100 µM (inactive),> 100 µM (inactive),> 100 µM (inactive),,,> 100 µM (inactive),> 100 µM (inactive)
